From article PMC5650372 (Oncotarget, 2017) come the findings set out here.

Assay [1] relates to pAKT S473 in NCI-H441 cells. In words: Western blot quantitation of pAKT S473 (mTORC2 biomarker). Format: cell-based. To be noted: Homo sapiens; NCI-H441, presence of bleomycin, 2 hrs, n=3; read-out: IC50 of pAKT S473 inhibition.
Assay [2] deals with pDNA-PK S2056 in NCI-H441 cells. In words: Western blot quantitation of pDNA-PK S2056. Format: cell-based, human. As for the experimental part: The cell lysates were subjected to SDS-PAGE and immunoblotting with indicated antibodies. […] The pDNA-PK bands were quantified by Odyssey imaging software (LI-COR, Lincoln, NE) and normalized to total DNA-PK. IC50 values were determined by Excelfit (London, UK).

For assay [3], the system named is ATM-proficient cell lines (MDA-MB-231, MCF7, CAL51, HCC1937). In words: Colony-formation assay. The class given is cell-based, human. The settings on record: versus ATM-deficient HCC1187. The procedure: MCF7, Cal51, MDA-MB-231, H1937, MDA-MB-175VII and HCC1187 human breast cancer cell lines were plated at 2000 cells per well in 6-well plates and HCC1500 breast cancer cell line was plated at 10,000 cells per well in 6-well plates and cultured overnight. Cells were then treated with compounds at indicated concentrations. Media and compounds were changed every three days. Plates were incubated for a total of about two weeks then fixed and stained using the DIFF QUIK staining kit (Microptic, Barcelona, Spain). Colonies were imaged and counted.

For assay [4], the system named is NCI-H1975 and SW1573 cells. Description: Clonogenic assay alone or with etoposide. Format: cell-based, human. The procedure:
Media were changed every three days. Plates were incubated for a total of about two weeks then fixed and stained using the DIFF QUIK staining kit. Colonies were imaged and counted.

The target in assay [5] is T1, DNA-PKcs, XRCC4 and DNA ligase IV on DNA (Homo sapiens, UniProt P78527).
T1 construct: endogenous in cells; host or cells: MCF7 nuclear extract
Description: DNA end binding assay (MCF7 nuclear extract). Format: biochemical. The settings on record: 5 μM, MCF7 nuclear extract, 10, 30, 60 minutes. An excerpt: One kb of DNA fragment, including an EcoRI sequence in the middle, was amplified by PCR using pEGFP as a template and a pair of biotinylated EGFP primers (5′-biotin-[…]-3′ and 5′-biotin-[…]-3′: Valuegene, San Diego, CA). The amplified DNA fragment was cleaved by EcoRI to produce two 0.5 kb biotinylated DNA fragments, and was purified using the QIAquick PCR purification kit (Qiagen). […] An aliquot of the reaction was removed at each time point to separate the supernatant and the beads. The supernatant was subjected to SDS-PAGE and immunoblotting with indicated antibodies. The beads were washed twice with 250 μL of IP buffer (25 mM Hepes-KOH, pH 7.5, 100 mM NaCl, 20% glycerol, 5 mM EDTA, 1 mM DTT, 0.05% Nonidet P-40, 10 mM NaF, and protease inhibitor mixture) and subjected to SDS-PAGE and immunoblotting with indicated antibodies.

Assay [6] deals with panel of 123 cancer cell lines. In words: Proliferation assay, whole panel. The class given is cell-based. The settings on record: Homo sapiens; range over 123 cell lines; read-out: GI50 values across the cancer cell line panel. The procedure:
(§1) Proliferation assays were performed as previously described. […] The concentration of compound required for a 2-fold induction of Caspase was determined (CalX).

The subject of assay [7] is hematological and solid tumor cell lines. In words: Caspase 3/7-Glo apoptosis assay. Format: cell-based, human. The settings on record: 24 h, subset of hematological and solid tumor cell lines. The procedure:
as §1

For `CCN1C(=O)CNc2ncc(-c3ccc(-c4nc[nH]n4)nc3C)nc21` [CC-115, 1-ethyl-7-(2-methyl-6-(1H-1,2,4-triazol-3-yl)pyridin-3yl)-3,4-dihydropyrazino[2,3-b]pyrazin-2(1H)-one], the IC50 in assay [1] was 136 ± 62 nM; in assay [2] (Homo sapiens, NCI-H441, presence of bleomycin, 2 hrs, n=3, read-out: IC50 of pDNA-PK S2056 inhibition) it was 2600 ± 450 nM. Also, the “cellular activity against DNA-PK weaker than against mTOR kinase” value in assay [2] (NCI-H441) is on record as ~16 fold. In addition, in assay [3], the “ATM-proficient cell lines less sensitive to inhibition of colony formation” value is listed as 100 fold. Besides, the “combination with 6.8 μM etoposide on colony formation greater than additive” value in assay [4] (0.1 μM compound, 4 hours) is listed as “not”. Besides, the “combination with 6.8 μM etoposide on colony formation” value in assay [4] (10 μM compound, 4 hours) is listed as “synergistic effect”. In assay [4] (4 hours treatment alone), the “effect on cell survival, single agent” value is listed as “minimal effect on cell survival”. The “DNA-PKcs, XRCC4 and DNA ligase IV bound to DNA over time” value in assay [5] is listed as “retained from 10 minutes through the end of the reaction at 60 minutes”. Also, the 50% growth inhibitory concentration (GI50) in assay [6] is 15 to 1770 nM. Besides, in assay [7], the “apoptosis induction (Caspase 3/7)” value is reported as “induced strong apoptosis”.
